In patent US9453226B2, “Protection of cells from Alu-RNA-induced degeneration and inhibitors for protecting cells” (UNIVERSITY OF KENTUCKY RESEARCH FOUNDATION, priority 2011, dated 2016):
Like-named read-outs stand apart in the source and are kept apart here.

Experiments:
RPE = assay: AAV1-BEST1-Cre-induced RPE degeneration in Dicer1 f/f mice; format: in vivo; details: peptide intravitreous
Procedure: Subretinal injections (1 μL) in mice were performed using a Pico-Injector (PLI-100, Harvard Apparatus). In vivo transfection of plasmids coding for two different Alu sequences (pAlu) or empty control vector (pNull) (Bennett et al., 2008; Kaneko et al., 2011; Shaikh et al., 1997) was achieved using 10% Neuroporter (Genlantis). AAV1-BEST1-Cre (Alexander and Hauswirth, 2008) or AAV1-BEST1-GFP were injected at 1.0×10^11 pfu/mL and in vitro transcribed Alu RNA was injected at 0.3 mg/mL. […]

Caspase-1 = biological target: T1, Caspase-1 (Homo sapiens, UniProt P29466); assay: Caspase-1 activation in human RPE cells (Western blot p20, Caspalux substrate cleavage); format: cell-based; details: for Alu RNA-induced Caspase-1 substrate cleavage: Caspalux fluorescent substrate
T1 construct: Primary human RPE cells were isolated as previously described; endogenous in cells; host or cells: primary human RPE cells
T1 sequence (P29466 120-297 limits assumed): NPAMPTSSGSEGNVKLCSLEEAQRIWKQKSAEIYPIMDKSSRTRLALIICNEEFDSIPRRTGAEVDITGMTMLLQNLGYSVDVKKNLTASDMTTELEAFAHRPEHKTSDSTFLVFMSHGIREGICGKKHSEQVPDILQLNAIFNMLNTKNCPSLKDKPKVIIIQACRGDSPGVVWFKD
T1 sequence (P29466 317-404 limits assumed): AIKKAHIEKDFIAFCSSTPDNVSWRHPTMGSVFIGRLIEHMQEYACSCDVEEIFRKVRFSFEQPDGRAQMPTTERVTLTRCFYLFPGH
Procedure: Protein abundance was assessed by Western blot analysis using antibodies against Caspase-1 (1:500; Invitrogen), pIRAK1 (1:500; Thermo Scientific), pIRAK4 (1:500, Abbomax), PYCARD (1:200, Santa Cruz Biotechnology), NLRP3 (1:500, Enzo Life Sciences) and Vinculin (1:1,000; Sigma-Aldrich). Caspase-1 activity was visualized using Caspalux1 E1D2 (Oncolmmunin) according to manufacturer's instructions.
Tissues or cells were homogenized in lysis buffer (10 mM Tris base, pH 7.4, 150 mM NaCl, 1 mM EDTA, 1 mM EGTA, 1% Triton X-100, 0.5% NP-40, protease and phosphatase inhibitor cocktail (Roche)). Protein concentrations were determined using a Bradford assay kit (Bio-Rad) with bovine serum albumin as a standard. Proteins (40-100 μg) were run on NuPAGE Bis-Tris gels (Invitrogen) and transferred to Immun-Blot PVDF membranes (Bio-Rad). Cells were scraped in hot Laemmli buffer (62.5 mM Tris base, pH 6.8, 2% SDS, 5% 2-Mercaptoethanol, 10% Glycerol, 0.01% Bromophenol Blue). Samples were boiled and run on 4-20% NuPAGE Tris-Glycine gels (Invitrogen). The transferred membranes were blocked for 1 h at RT and incubated with antibodies against human Caspase-1 (1:500; Invitrogen), mouse Caspase 1 (1:500; MBL), NLRP3 (1:1000; Enzo Life Sciences), PYCARD (1:1000, RayBiotech), phospho-IRAK1 (S376) (1:500, Thermo Scientific), phospho-IRAK4 (T345) (1:500, AbboMax), DICER1 (1:2,000; Bethyl), MyD88 (1:1,000; Cell Signaling), and mouse IL-18 (1:200; MBL) at 4° C. overnight. Protein loading was assessed by immunoblotting using an anti-Vinculin antibody (1:1,000; Sigma-Aldrich). The secondary antibodies were used (1:5,000) for 1 h at RT. The signal was visualized by enhanced chemiluminescence (ECL plus) and captured by VisionWorksLS Image Acquisition and Analysis software (Version 6.7.2, UVP, LLC).
Caspase-1 activity. Caspase-1 activity was visualized by incubating cells with Caspalux1E1D2 reagent (Oncolmmunin) according to the manufacturer's instructions. Caspalux1E1D2 signal was quantified reading the fluorescence (excitation 552 nm, emission 580 nm) using a Synergy 4 reader (Biotek). Quantification of fluorescence from images was performed by converting images into grayscale in Adobe Photoshop CSS, and measuring the integrated density of black and white images using ImageJ software (NIH) (Bogdanovich et al., 2008).

IL-18 = IL-18 maturation in RPE cell lysates of wild-type mice (Western blot); format: in vivo; details: WT mice, peptide intravitreous
Procedure: siRNAs formulated in siRNA buffer (20 mM KCL, 0.2 mM MgCl2 in HEPES buffer at pH 7.5; Dharmacon) or phosphate buffered saline (PBS; Sigma-Aldrich); the TLR4 antagonist Ultra Pure Rhodobacter sphaeroides LPS (LPS-RS, InvivoGen), a peptide inhibitor of MyD88 homodimerization IMG-2005 (IMGENEX), control inhibitor (IMGENEX), recombinant IL-18 (Medical & Biological Laboratories), neutralizing rat antibodies against mouse IL-1β (IMGENEX), neutralizing rat antibodies against mouse IL-18 (Medical & Biological Laboratories), isotype control IgGs (R&D Systems or eBioscience as appropriate), Caspase-1 inhibitor Z-WEHD-FMK (R&D Systems), Caspase control inhibitor Z-FA-FMK (R&D Systems), DPI (Enzo Life Sciences), Mito-TEMPO (Enzo Life Sciences), MitoQ and dTPP (both adsorbed to cyclodextrin and provided by M.P. Murphy, MRC Mitochondrial Biology Unit), and gp91ds-tat and scrambled gp91 ds-tat (both Anaspec), were dissolved in phosphate buffered saline (PBS; Sigma-Aldrich) or dimethyl sulfoxide (DMSO; Sigma-Aldrich), and injected into the vitreous humor in a total volume of 1 μL with a 33-gauge Exmire microsyringe (Ito Corporation). […] As a control, Luc siRNA-chol (17+2 nt) was used with identical dosages. […]

human RPE cells = human RPE cells transfected with pAlu
Procedure: All cell cultures were maintained at 37° C. and 5% CO2. Primary mouse RPE cells were isolated as previously described (Yang et al., 2009) and grown in Dulbecco Modified Eagle Medium (DMEM) supplemented with 20% FBS and standard antibiotics concentrations. Primary human RPE cells were isolated as previously described (Yang et al., 2008) and maintained in DMEM supplemented with 10% FBS and antibiotics. HeLa cells were maintained in DMEM supplemented with 20% FBS and standard antibiotics concentrations. THP-1 cells were cultured in RPMI 1640 medium supplemented with 10% FBS and antibiotics.
MTS assays were performed using the CellTiter 96 AQueous One Solution Cell Proliferation Assay (Promega) according to the manufacturer's instructions. For examining the cytoprotective effect of glycine in Alu RNA induced cell death, human RPE cells were transfected with pNull/pAlu. At 6 h post-transfection the cells were incubated with complete media containing glycine (5 mM) or vehicle, and cell viability was assessed after 24 h. Similarly, human RPE cells primed with LPS (5 μg/ml for 6 h) were treated with ATP (25 μM) in the presence of glycine containing media (5 mM). 30 min post ATP cell viability was assessed as described above.
MTS assays were performed using the CellTiter 96 AQueous One Solution Cell Proliferation Assay (Promega) according to the manufacturer's instructions.

| Substance | AAV1-BEST1-Cre-induced RPE degeneration (RPE) | Alu RNA-induced Caspase-1 substrate cleavage (Caspase-1; listed as Caspase-1-inhibitory peptide) | Alu RNA-induced Caspase-1 substrate cleavage (Caspase-1; listed as Caspase-1 inhibitor peptide) | pAlu-induced IL-18 maturation (IL-18) | pAlu-induced IL-18 maturation (IL-18; listed as Caspase-1 peptide inhibitor) | pAlu-induced human RPE cell death / loss of cell viability (human RPE cells; listed as MyD88-inhibitory peptide) | pAlu-induced human RPE cell death / loss of cell viability (human RPE cells; listed as MyD88i) | Alu RNA-induced Caspase-1 substrate cleavage (Caspase-1) | Alu RNA-induced Caspase-1 activation (p20 subunit) (Caspase-1; Western blot) |
| --- | --- | --- | --- | --- | --- | --- | --- | --- | --- |
| Z-WEHD-FMK | blocked | blocked Alu RNA-induced substrate cleavage | blocks | blocked IL-18 maturation | impaired |  |  |  |  |
| DRQIKIWFQNRRMKWKKRDVLPGT [MyD88 inhibitory peptide] | blocked |  |  |  |  | inhibited cell death | rescued | does not reduce | unaffected |
